Data from patent publication US5235061A, “Fungicidal (1H-1,2,4-triazolyl)disilaalkanes” (priority 1991, dated 1993).

Tests used:
Assay in all cases: In vitro percent disease control (radii of spore growth on agar)
Type in all cases: cell-based
Alternaria mali = details: Alternaria mali, read-out: % controlled, Al.
Method in brief: (§1)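 Compounds in acetone (10% of final volume) diluted with water to 100 and 50 ppm, then mixed into potato-sucrose-agar with each fungus spotted centrally. Incubated several days in a growth room; percent disease control derived from radii of spore growth.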

Rhizopus sp. = details: Rhizopus, read-out: % controlled, Rhi. sp.
Method in brief: as §1

Phytophthora capsisi = details: Phytophthora, read-out: % controlled, Phy ca.
Method in brief: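 Compounds dissolved in acetone (10% of final volume) then water at 100 ppm and 50 ppm, mixed into potato-sucrose-agar; fungus spotted at plate centre and incubated several days. Percent disease control derived from radii of spore growth.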

Physalospora baccae = details: read-out: % controlled, Phy ba.
Method in brief: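 Compounds at 100 and 50 ppm (10% acetone) mixed into potato-sucrose-agar, fungus spotted centrally and grown several days in a growth room. Percent disease control derived from radii of spore growth.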

[1] = tested on: Botryosphaeria dothidea Macrophoma sp.; details: Botryosphaeria dothidea, read-out: % controlled, Bo.do (Ma.)
Method in brief: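 Compounds (100 and 50 ppm, 10% acetone in water) were mixed into potato-sucrose-agar and the fungus was spotted centrally, then incubated several days in a growth room. Percent disease control came from radii of spore growth.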

Glomerella cingulata = details: Colletotrichum gloeosporioides, read-out: % controlled, Glo.
Method in brief: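 Compounds were dissolved in acetone (10% of final volume) plus water at 100 ppm and 50 ppm and mixed into potato-sucrose agar. G. cingulata was spotted centrally and incubated for several days in a growth room. Percent disease control was derived from the radii of spore growth.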

Pyricalaria oryzae = details: for inhibition of growth at 50 ppm: read-out: % controlled, Py. or., 50 ppm; for inhibition of growth at 100 ppm: read-out: % controlled, Py. or., 100 ppm
Method in brief: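 Compounds at 100 ppm and 50 ppm (10% acetone in water) mixed into potato-sucrose-agar, P. oryzae spotted centrally and incubated several days. Percent disease control derived from radii of spore growth.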

Rhizoctonia solani = details: Rhizoctonia solani, read-out: % controlled, Rhy. so.
Method in brief: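 Test compounds at 100 ppm and 50 ppm (acetone 10% of final volume, then water) were mixed into potato-sucrose-agar, and the fungus was spotted at the dish centre. Dishes were incubated several days in a growth room. Percent disease control was derived from the radii of spore growth.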

Fusarium moniliforme = tested on: Fusarium moniliforme
Method in brief: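 Compounds in 10% acetone/water at 100 and 50 ppm were mixed into potato-sucrose-agar, with Fusarium moniliforme spotted centrally. After several days' incubation, percent disease control was derived from radii of spore growth.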

Botry tris cinerea = details: read-out: % controlled, Bo ci.
Method in brief: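 Compounds at 100 and 50 ppm (acetone 10% of final volume, rest water) mixed into potato-sucrose agar; Botrytis cinerea spotted at dish centre. After several days' incubation, percent disease control calculated from radii of spore growth.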

| SMILES | inhibition of growth at 50 ppm (Alternaria mali) [%] | inhibition of growth at 100 ppm (Alternaria mali) [%] | inhibition of growth at 50 ppm (Rhizopus sp.) [%] | inhibition of growth at 100 ppm (Rhizopus sp.) [%] | inhibition of growth at 50 ppm (Phytophthora capsisi) [%] | inhibition of growth at 100 ppm (Phytophthora capsisi) [%] | inhibition of growth at 50 ppm (Physalospora baccae) [%] | inhibition of growth at 100 ppm (Physalospora baccae) [%] | inhibition of growth at 50 ppm [1] [%] | inhibition of growth at 100 ppm [1] [%] | inhibition of growth at 50 ppm (Glomerella cingulata) [%] | inhibition of growth at 100 ppm (Glomerella cingulata) [%] | inhibition of growth at 50 ppm (Pyricalaria oryzae) [%] | inhibition of growth at 100 ppm (Pyricalaria oryzae) [%] | inhibition of growth at 50 ppm (Rhizoctonia solani) [%] | inhibition of growth at 100 ppm (Rhizoctonia solani) [%] | % controlled, Fu. mo. (Fusarium moniliforme; 50 ppm) [%] | % controlled, Fu. mo. (Fusarium moniliforme; 100 ppm) [%] | inhibition of growth at 50 ppm (Botry tris cinerea) [%] | inhibition of growth at 100 ppm (Botry tris cinerea) [%] |
| --- | --- | --- | --- | --- | --- | --- | --- | --- | --- | --- | --- | --- | --- | --- | --- | --- | --- | --- | --- | --- |
| C=CC[Si](C)(Cn1cncn1)C[Si](CC=C)(c1ccccc1)c1ccc(-c2ccccc2)cc1 (stereo not drawn) [4-methyl-6-phenyl-6-(4-phenylphenyl)-4,6-disila-4-(1H-1,2,4-triazol-1-ylmethyl)-1,8-nonadiene] | 72 | 100 | 40 | 56 | 38 | 60 | 84 | 100 | 100 | 100 | 100 | 100 | 100 | 100 | 80 | 100 | 100 | 100 | 77 | 100 |
| C=CC[Si](C)(Cn1cncn1)C[Si](CC=C)(c1ccc(F)cc1)c1ccc(F)cc1 (stereo not drawn) [6,6-bis(4-fluorophenyl)-4-methyl-4,6-disila-4-(1H-1,2,4-triazol-1-ylmethyl)-1,8-nonadiene] | 78 | 100 | 100 | 100 | 21 | 100 | 60 | 80 | 100 | 100 | 100 | 100 | 85 | 100 | 75 | 87 | 100 | 100 | 86 | 100 |
| C=CC[Si](C)(Cn1cncn1)C[Si](CC=C)(c1ccccc1)c1ccccc1 (stereo not drawn) [6,6-diphenyl-4-methyl-4,6-disila-4-(1H-1,2,4-triazol-1-ylmethyl)-1,8-nonadiene] | 72 | 89 | 50 | 100 | 33 | 40 | 84 | 100 | 80 | 100 | 89 | 100 | 100 | 100 | 80 | 100 | 60 | 100 | 77 | 100 |
